Legend:
ATR Seckel and WT ESCs = experiment: In-vitro differentiation toward giant trophoblast-like cells; format: cell-based, mouse
Protocol: RNA was extracted using RNeasy mini kit (QIAGEN), quantified by NanoDrop spectrophotometer and cDNA was prepared from 2 μg total DNA-depleted RNA using SuperScript™ III reverse transcriptase kit (Invitrogen cat #18080-093) following manufacturer's instructions. qPCR assay performed based on standard protocol using 10× SsoFast™ EvaGreen® Supermix or later 1× LightCycler 480 SYBR Green I Master (Roche, 04707516001), 0.5 μM primer mix and 5 ng of cDNA. GAPDH was used as internal control to normalise the qPCR data following ΔΔCt method, 10 μM primer mix and a total amount of cDNA corresponding to 5 ng of starting RNA for each reaction.
Then, cells were incubated with primary antibody at 4° C. overnight, followed by washes and incubation with secondary antibody for an hour at room temperature. Next samples were mounted and images were acquired with wide field florescent microscope. Antibodies used in this study were Anti Oct-3/4 (Santa Cruz sc-5279), Anti Nanog (Abcam ab80892) and Plet-1 antibody (Nordic MUbio MUB1512P) and), Anti-GFP (Abcam, ab5450). Acquired figures were analyzed with ImageJ software. […]

mESC lines E14 and R1 = experiment: Whole gene expression profiling (microarray) of mESC lines E14 and R1; format: cell-based, mouse
Protocol: The quality of total RNA was first assessed using an Agilent Bioanalyzer 2100 (Agilent Technologies, Palo Alto, Calif.). Biotin-labeled cDNA targets were synthesized starting from 150 ng of total RNA. Double stranded cDNA synthesis and related cRNA was performed with GeneChip® WT Plus Kit (Affymetrix, Santa Clara, Calif.). With the same kit was synthesized the sense strand cDNA before to be fragmented and labeled. […] Each eukaryotic GeneChip® probe array contains probe sets for several B. subtilis genes that are absent in the samples analyzed (lys, phe, thr, and dap). This Poly-A RNA Control Kit contains in vitro synthesized, polyadenylated transcripts for these B. subtilis genes that are pre-mixed at staggered concentrations to allow GeneChip® probe array users to assess the overall success of the assay.
Hybridization was performed using the GeneAtlas™ Hybridization, Wash and Stain Kit. […] Targets were diluted in hybridization buffer at a concentration of 0.05 μg/ul, denatured at 99° C. for 5 minutes, incubated at 45° C. for 5 minutes and centrifuged at 5,000 rpm for 1 minute. The Array Strip is then moved to a hybridization tray, which contains the hybridization cocktails. A single Gene 2.1 PEG Array Strip is hybridized with four different biotin-labeled targets. Hybridizations were performed for 20 hours at 48° C. in the GeneAtlas™ Hybridization Station. The Array Strips were washed and stained in the GeneAtlas™ Personal Fluidics Station. At the end of this procedure the array strips were placed into the imaging tray, which contains the Array Holding buffer.
The array strips were imaged using the GeneAtlas™ Imaging Station. Affymetrix GeneAtlas™ Command Console software was used to acquire the Array Strip images and […].
The CAMERA gene set enrichment p-values were calculated using the limma package and the camera function 30.
In the GSVA based enrichment analysis, we used the MsigDB gene sets, and transformed the individual gene expression values into gene set expression values with the GSVA package 32. We calculated the gene set differential expression as in the gene level differential expression analysis, only skipping the RMA normalization step.

pZscan4-Emerald ESCs = experiment: Cell cycle analysis of ESCs; format: cell-based, mouse; settings: APH 0.3 μM and 6 μM
Source text: ESCs were fixed and permeabilized using Cytoperm/Cytofix kit (BD Biosciences), and subsequently stained for one hour at room temperature with Alexa Fluor® 647 anti-H2AX-Phosphorylated (Ser139) antibody (Biolegend) or P-CHK1-PE conjugated antibody (cell signaling 12268). Cells were washed and acquired on a FACS Calibur instrument or Attune NxT (Thermo Fisher Scientific). For Emerald-GFP acquisition, cells were trypsinized, collected and subsequently acquired without fixation. Cell cycle profiles were acquired after incubation with DAPI (4′,6-diamidino-2-phenylindole) overnight. For Caspase3 FACS analysis after fixation and permeabilization, Cleaved Caspase3 antibody were used for one hr at RT followed by washes and one hr incubation in donkey anti rabbit secondary antibody. […]

E14 mouse ESCs = experiment: Drop-seq single cell transcriptional profiling of E14 ESCs; format: cell-based
Protocol: ESCs from CNTL, APH (6 μM) and APH-ATRi experimental conditions were resuspended in PBS-BSA and processed with a microfluidic device according to the DropSeq Laboratory Protocol V3.1 from McCarroll's Lab website [http://mccarrolllab.com/dropseq/l]. For each condition, 3 distinct aliquots of collected emulsion, each containing 4000 beads underwent reverse transcription (RT) and fragment library preparation using Illumina Nextera XT Library Prep Kit. A distinct barcode was used for each library to allow subsequent demultiplexing of sequencing reads. mRNA sequencing was performed using an Illumina HiSeq2000 instrument, library fragments were sequenced at 50 base pairs (bp) in PE mode. Sequencing reads were aligned to UCSC Mouse Reference Genome version mm10 using STAR (version 2.5.3a), and processed according to DropSeq Alignment Cookbook V1.2 to generate a digital expression matrix of STAMPs (cells) for each experimental condition, which was then furtherly analyzed in the RStudio environment (R version 3.3.3) using Seurat package V2.0 from Satija Lab [http://satijalab.org/seurat/]. Seven-hundred most expressed cells were selected in each condition; genes expressed in less than 3 cells and cells expressing less than 200 genes were pruned from the dataset. Data from CNTL and APH conditions (1399 cells) or CNTL, APH and APH-ATRi conditions (2096 cells) were merged to generate two datasets, which were log normalised and scaled. Expression mean and variance to mean ratio (Log VMR>0.5) were used to estimate data dispersion and select variable genes across the dataset. Respectively 2614 and 2768 genes (in the 2-conditions and 3-conditions datasets) were used in principal component analysis (PCA) to identify the appropriate number of components to include in data modeling. Top 15 components were selected to explain dataset complexity. A shared nearest neighbor (SNN) graph and smart local moving algorithm was used to perform cells clustering; t-SNE (t-stochastic neighbour embedding) analysis was used to reduce (PCA) dimensionality and generate plots of cells distribution.

Compound: C[C@@]1(CO)[C@H](O)CC[C@@]2(C)[C@H]1CC[C@H]1C[C@@H]3C[C@@]12CC[C@]3(O)CO [APH, aphidicolin]
- number of giant trophoblast-like cells (ATR Seckel and WT ESCs; APH treatment): more than three folds
- giant trophoblast cell specific marker Prl2c2 (qPCR) in ATR activated condition (ATR Seckel and WT ESCs; wild type ESC treated with APH): highest expression
- downregulated genes (mESC lines E14 and R1; APH treatment, E14 and R1): 21 genes
- upregulated genes with more than two-fold changes (mESC lines E14 and R1; APH treatment, E14 and R1): 193 genes
- DEGs overlapping with totipotency specific genes (mESC lines E14 and R1; APH treatment, 43 out of 201, compared with published datasets): 17%
- two placenta-related gene categories (MSigDB gene-sets analysis) (mESC lines E14 and R1; APH vs CNTL): strong and highly significant enrichment
- G2/M population in culture (pZscan4-Emerald ESCs): neither at low (0.3 μM) nor at high (6 μM) concentrations could increase G2/M population
- small cell population (cluster 4, 2C-like) in single cell profiling (E14 mouse ESCs; E14 ESCs in LIF plus 2i, APH 6 μM): significantly increased

Compound: CNCc1ccc(-c2cc(-c3nc(-c4ccc(S(=O)(=O)C(C)C)cc4)cnc3N)on2)cc1 [VE 822]
- APH induced 2C-like genes which reverted their expression level (mESC lines E14 and R1; 31 out of 43, inhibitor added after APH): 72%
- two placenta-related gene categories upon ATR inhibition (mESC lines E14 and R1; APH plus inhibitor): robustly suppressed
- DNA repair signaling pathway (geneset enrichment analysis) (mESC lines E14 and R1; inhibitor added after APH-induced replication stress): robust silencing
- number of APH-induced 2C-like gene expressing cells (Zscan4d+, Gm8300+) (E14 mouse ESCs; APH plus ATRi): marked reduction
- number of RS-induced cells in the newly emerging cluster (E14 mouse ESCs; APH plus ATRi): significantly reduced
